Experiments:
[1] = tested on: Human immunodeficiency virus 1; assay: Inhibition of HIV1 protease at 50 nM
Plasmepsin II = Plasmepsin II (Plasmodium falciparum, UniProt P46925); assay: Inhibition of Plasmodium falciparum plasmepsin-2
Plasmodium falciparum = assay: Antimicrobial activity against Plasmodium falciparum in erythrocytes; assay type: functional, organism-based
[2] = Selectivity for Plasmodium falciparum plasmepsin-2 over human cathepsin D

Sequence of Plasmepsin II (P46925 whole entry): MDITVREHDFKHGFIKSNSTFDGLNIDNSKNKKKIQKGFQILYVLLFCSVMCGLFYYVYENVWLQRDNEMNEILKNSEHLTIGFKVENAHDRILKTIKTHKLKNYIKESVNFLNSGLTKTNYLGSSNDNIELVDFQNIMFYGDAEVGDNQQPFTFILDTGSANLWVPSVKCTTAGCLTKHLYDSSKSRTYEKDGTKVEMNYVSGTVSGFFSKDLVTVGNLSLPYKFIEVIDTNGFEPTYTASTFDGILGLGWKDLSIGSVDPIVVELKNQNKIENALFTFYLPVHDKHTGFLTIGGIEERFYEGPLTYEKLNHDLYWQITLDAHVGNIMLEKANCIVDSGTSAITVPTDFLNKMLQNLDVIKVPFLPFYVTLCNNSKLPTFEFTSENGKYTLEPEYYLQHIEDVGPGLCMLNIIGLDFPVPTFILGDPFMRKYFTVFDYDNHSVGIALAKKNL

inhibition [1] [%] | Ki (Plasmepsin II) [nM] | EC50 (Plasmodium falciparum) [nM] | Ratio [2] | SMILES
76 | 12 | – | – | CSC[C@H](NC(=O)Cc1cccc(N)c1)C(=O)N[C@@H](Cc1ccccc1)[C@H](O)C(=O)N1CSC(C)(C)[C@H]1C(=O)N[C@H]1c2ccccc2C[C@H]1O
84 | 4 | – | – | CSC[C@H](NC(=O)Cc1cccc(O)c1)C(=O)N[C@@H](Cc1ccccc1)[C@H](O)C(=O)N1CSC(C)(C)[C@H]1C(=O)N[C@H]1c2ccccc2C[C@H]1O
83 | 0.2 | 4700 | – | CSC[C@H](NC(=O)Cc1ccccc1C)C(=O)N[C@@H](Cc1ccccc1)[C@H](O)C(=O)N1CSC(C)(C)[C@H]1C(=O)N[C@H]1c2ccccc2C[C@H]1O
99 | 9 | – | – | CSC[C@H](NC(=O)c1cc(=O)c2ccccc2o1)C(=O)N[C@@H](Cc1ccccc1)[C@H](O)C(=O)N1CSC(C)(C)[C@H]1C(=O)N[C@H]1c2ccccc2C[C@H]1O
88 | 5 | – | – | CSC[C@H](NC(=O)Cc1ccc(C)cc1)C(=O)N[C@@H](Cc1ccccc1)[C@H](O)C(=O)N1CSC(C)(C)[C@H]1C(=O)N[C@H]1c2ccccc2C[C@H]1O
68 | ≤ 0.1 | – | – | CSC[C@H](NC(=O)Cc1ccc(N)cc1)C(=O)N[C@@H](Cc1ccccc1)[C@H](O)C(=O)N1CSC(C)(C)[C@H]1C(=O)N[C@H]1c2ccccc2C[C@H]1O
86 | 16 | – | – | CSC[C@H](NC(=O)Cc1ccccc1O)C(=O)N[C@@H](Cc1ccccc1)[C@H](O)C(=O)N1CSC(C)(C)[C@H]1C(=O)N[C@H]1c2ccccc2C[C@H]1O
86 | 4 | – | – | CSC[C@H](NC(=O)Cc1ccccc1N)C(=O)N[C@@H](Cc1ccccc1)[C@H](O)C(=O)N1CSC(C)(C)[C@H]1C(=O)N[C@H]1c2ccccc2C[C@H]1O
88 | 17 | – | – | COc1cccc(CC(=O)N[C@@H](CSC)C(=O)N[C@@H](Cc2ccccc2)[C@H](O)C(=O)N2CSC(C)(C)[C@H]2C(=O)N[C@H]2c3ccccc3C[C@H]2O)c1
99 | 3 | 3100 | – | CSC[C@H](NC(=O)COc1cccc2cnccc12)C(=O)N[C@@H](Cc1ccccc1)[C@H](O)C(=O)N1CSC(C)(C)[C@H]1C(=O)N[C@H]1c2ccccc2C[C@H]1O
– | 1000 | – | – | CSC[C@H](NC(=O)COc1cccc2cnccc12)C(=O)N[C@@H](Cc1ccccc1)[C@H](O)C(=O)N1CSC[C@H]1C(=O)NC(C)(C)C
85 | ≤ 0.1 | – | – | CSC[C@H](NC(=O)Cc1ccccc1)C(=O)N[C@@H](Cc1ccccc1)[C@H](O)C(=O)N1CSC(C)(C)[C@H]1C(=O)N[C@H]1c2ccccc2C[C@H]1O

Continued, molecule first:

SMILES | inhibition [1] [%] | Ki (Plasmepsin II) [nM] | EC50 (Plasmodium falciparum) [nM] | Ratio [2]
CSC[C@H](NC(=O)Cc1cccc(C)c1)C(=O)N[C@@H](Cc1ccccc1)[C@H](O)C(=O)N1CSC(C)(C)[C@H]1C(=O)N[C@H]1c2ccccc2C[C@H]1O | 87 | 18 | – | –
COc1ccc(CC(=O)N[C@@H](CSC)C(=O)N[C@@H](Cc2ccccc2)[C@H](O)C(=O)N2CSC(C)(C)[C@H]2C(=O)N[C@H]2c3ccccc3C[C@H]2O)cc1 | 91 | 4 | – | –
Cc1cccc(C)c1OCC(=O)N[C@@H](Cc1ccccc1)[C@H](O)C(=O)N1CSC(C)(C)[C@H]1C(=O)N[C@H]1c2ccccc2C[C@H]1O | – | 0.5 | 6800 | –
COc1ccccc1CC(=O)N[C@@H](CSC)C(=O)N[C@@H](Cc1ccccc1)[C@H](O)C(=O)N1CSC(C)(C)[C@H]1C(=O)N[C@H]1c2ccccc2C[C@H]1O | 81 | 9 | – | –
CSC[C@H](NC(=O)OC1CCCCC1)C(=O)N[C@@H](Cc1ccccc1)[C@H](O)C(=O)N1CSC(C)(C)[C@H]1C(=O)N[C@H]1c2ccccc2C[C@H]1O | 56 | 5 | – | –
CSC[C@H](NC(=O)COc1cccc(Nc2ccccc2)c1)C(=O)N[C@@H](Cc1ccccc1)[C@H](O)C(=O)N1CSC(C)(C)[C@H]1C(=O)N[C@H]1c2ccccc2C[C@H]1O | 98 | 15 | – | –
CSC[C@H](NC(=O)Cc1ccc(O)cc1)C(=O)N[C@@H](Cc1ccccc1)[C@H](O)C(=O)N1CSC(C)(C)[C@H]1C(=O)N[C@H]1c2ccccc2C[C@H]1O | 88 | ≤ 0.1 | – | –
CSC[C@H](NC(=O)COc1cccc2cnccc12)C(=O)N[C@@H](Cc1ccccc1)[C@H](O)C(=O)N1CSC(C)(C)[C@H]1C(=O)NC(C)(C)C | – | 36 | – | 50
